Assay results taken from patent US20240360148A1 (SUVALENT THERAPEUTICS, INC., priority 2021, published 2024).

These molecules were tested against SAE1 (Homo sapiens (Human), UniProt Q9UBE0+Q9UBT2) (assay: SAE High Throughput Biochemical Assay (HTRF), 15 min preincubation). Details: read-out: 15 min preincubation HTRF IC50 (μM) Ave, SAE1 12.5 nM, ATP 100 μM.
SAE1, sequence (Q9UBE0 whole entry): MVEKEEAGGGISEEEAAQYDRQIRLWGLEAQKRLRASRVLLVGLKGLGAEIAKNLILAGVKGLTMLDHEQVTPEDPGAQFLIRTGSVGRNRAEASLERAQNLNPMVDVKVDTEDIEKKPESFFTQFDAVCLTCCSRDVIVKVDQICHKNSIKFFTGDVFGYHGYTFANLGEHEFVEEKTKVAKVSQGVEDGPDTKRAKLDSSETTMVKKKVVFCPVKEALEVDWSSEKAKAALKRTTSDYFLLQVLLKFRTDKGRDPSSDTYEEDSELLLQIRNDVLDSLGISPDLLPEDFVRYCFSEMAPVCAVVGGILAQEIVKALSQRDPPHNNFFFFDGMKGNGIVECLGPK
SAE1, sequence (Q9UBT2 whole entry): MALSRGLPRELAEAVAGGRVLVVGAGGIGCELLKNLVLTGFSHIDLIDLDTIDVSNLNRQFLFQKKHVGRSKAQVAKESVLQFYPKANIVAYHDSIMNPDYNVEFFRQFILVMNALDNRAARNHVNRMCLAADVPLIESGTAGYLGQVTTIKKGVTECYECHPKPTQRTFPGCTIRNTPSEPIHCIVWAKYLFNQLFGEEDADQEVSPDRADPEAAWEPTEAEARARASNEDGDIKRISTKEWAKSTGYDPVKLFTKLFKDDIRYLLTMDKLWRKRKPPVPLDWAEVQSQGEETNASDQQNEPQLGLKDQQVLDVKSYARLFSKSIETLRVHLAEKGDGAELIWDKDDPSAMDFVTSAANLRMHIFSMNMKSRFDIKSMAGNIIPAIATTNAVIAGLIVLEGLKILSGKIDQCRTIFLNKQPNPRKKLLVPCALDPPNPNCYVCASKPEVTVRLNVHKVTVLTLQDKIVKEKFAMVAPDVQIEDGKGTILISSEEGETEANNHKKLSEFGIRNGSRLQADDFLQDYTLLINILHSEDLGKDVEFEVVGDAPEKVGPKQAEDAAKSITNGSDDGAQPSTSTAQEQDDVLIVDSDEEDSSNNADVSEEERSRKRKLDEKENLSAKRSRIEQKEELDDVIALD
Description: Assay buffer was prepared [50 mM HEPES, pH 7.5, 0.1% BSA and 10 mM MgCl2] as was the Stop Buffer [100 mM HEPES, pH 7.5, 0.05% Tween20, and 410 mM KF]. The 2×Reaction Buffer [80 nM SUMO-GST, 80 nM UBC9-His, 200 μM ATP and diluted in Assay Buffer] and Antibody Reaction Mix [13.34 nM anti-GSTXL665, 1.66 nM anti-His EuK and Diluted in Stop Buffer] were also prepared. Compounds were dissolved at 200×in DMSO in a 384-well plate. Serial dilutions were performed in DMSO for each compound, and then each concentration was diluted another 50-fold in Assay Buffer, to 4× the final concentration. 2.5 μL of each concentration was transferred into its own well in a 384-well plate. SAE1 was then diluted to 4× in Assay Buffer, and 2.5 μL of 4×SAE1 was mixed into each compound-containing well. After incubating for 15 minutes at RT, 5 μL of 2×Reaction Buffer was mixed into every well. Then after another 45 minutes at RT, 10 μL of Antibody Reaction Mix was added and mixed into every well. This plate was then read on an HTRF-compatible plate reader after 2 hours at RT, and again after sitting at RT overnight. [Final Component Concentrations: SAE1: 12.5 nM; SUMO-GST: 40 nM; UBC9-His: 40 nM; Anti-GST-XL665: 6.67 nM; Anti-His-EuK: 0.83 nM; and ATP: 100 μM] Alternatively, the compounds are tested at a single concentration of 25 micromolar and the percent of control is measured.
In the case of `CN(C)C/C=C/C(=O)N1Cc2sc(C#N)cc2[C@H](c2ccccc2-c2cn(-c3ccncc3F)nc2C(F)(F)F)C1` [Example 157, (S,E)-6-(4-(Dimethylamino)but-2-enoyl)-4-(2-(1-(3-fluoropyridin-4-yl)-3-(trifluoromethyl)-1H pyrazol-4-yl)phenyl)-4,5,6,7-tetrahydrothieno[2,3-c]pyridine-2-carbonitrile], the IC50 is reported as 18.6 µM.
`CN[C@@H](C)/C=C/C(=O)N1Cc2sc(C#N)c(C)c2[C@H](c2cccc(F)c2-c2cn(C)nc2C(F)(F)F)C1` [Example 219, (S)-4-(3-fluoro-2-(1-methyl-3-(trifluoromethyl)-1 H-pyrazol-4-yl)phenyl)-3-methyl-6-((S, E)-4-(methylamino)pent-2-enoyl)-4,5,6,7-tetrahydrothieno[2,3-c]pyridine-2-carbonitrile] showed an IC50 of 1.01 µM.
Work on `CCn1cc(-c2nc(N)ccc2C2CN(C(=O)/C=C/CN(C)C)Cc3sc(C#N)cc32)c(C(F)(F)F)n1` (stereo not shown) [Example 192, (E)-4-(6-Amino-2-(1-ethyl-3-(trifluoromethyl)-1 H-pyrazol-4-yl)pyridin-3-yl)-6-(4-(dimethylamino)but-2-enoyl)-4,5,6,7-tetrahydrothieno[2,3-c]pyridine-2-carbonitrile] yielded an IC50 of over 25 µM.
With `CCn1cc(-c2ccccc2[C@@H]2CN(C(=O)C#CCN3CCN(C)CC3)Cc3sc(C#N)cc32)c(C(F)(F)F)n1` [Example 143, (S)-4-(2-(1-Ethyl-3-(trifluoromethyl)-1 H pyrazol-4-yl)phenyl)-6-(4-(4-methylpiperazin-1-yl)but-2-ynoyl)-4,5,6,7-tetrahydrothieno[2,3-c]pyridine-2-carbonitrile] the IC50 was 2.18 µM.
With `CCn1cc(-c2c(F)cccc2[C@@H]2CN(C(=O)/C=C/CN[C@H]3CCOC3)Cc3sc(C#N)cc32)c(C(F)(F)F)n1` [Example 56, (S)-4-(2-(1-ethyl-3-(trifluoromethyl)-1 H-pyrazol-4-yl)-3-fluorophenyl)-6-((E)-4-(((S)-tetrahydrofuran-3-yl)amino)but-2-enoyl)-4,5,6,7-tetrahydrothieno[2,3-c]pyridine-2-carbonitrile] the IC50 was 1.09 µM.
Work on `CCn1cc(-c2ccccc2[C@@H]2CN(C(=O)C#CC3(N)CCC3)Cc3sc(C#N)cc32)c(C(F)(F)F)n1` [Example 137, (S)-6-(3-(1-Aminocyclobutyl)propioloyl)-4-(2-(1-ethyl-3-(trifluoromethyl)-1 H pyrazol-4-yl)phenyl)-4,5,6,7-tetrahydrothieno[2,3-c]pyridine-2-carbonitrile] yielded an IC50 of 0.36 µM.
Work on `CN(C)C/C=C/C(=O)N1Cc2sc(C#N)cc2[C@H](c2ccccc2-c2cn(CC(=O)O)nc2C(F)(F)F)C1` [Example 172, (S, E)-2-(4-(2-(2-Cyano-6-(4-(dimethylamino)but-2-enoyl)-4,5,6,7-tetrahydrothieno[2,3-c]pyridin-4-yl)phenyl)-3-(trifluoromethyl)-1H pyrazol-1-yl)acetic acid] yielded an IC50 of 21.1 µM.
In the case of `CCn1cc(-c2c(C3CN(C(=O)/C=C/CN(C)C)Cc4sc(C#N)cc43)ccc(F)c2Cl)c(C(F)(F)F)n1` (stereo not shown) [Example 187, (E)-4-(3-Chloro-2-(1-ethyl-3-(trifluoromethyl)-1 H-pyrazol-4-yl)-4-fluorophenyl)-6-(4-(dimethylamino)but-2-enoyl)-4,5,6,7-tetrahydrothieno[2,3-c]pyridine-2-carbonitrile], the IC50 is reported as 8.1 µM.
Work on `CCn1cc(-c2ccccc2[C@@H]2CN(C(=O)/C=C/[C@@H](COC)NC)Cc3sc(C#N)cc32)c(C(F)(F)F)n1` [Example 85, (S)-4-(2-(1-Ethyl-3-(trifluoromethyl)-1 H-pyrazol-4-yl)phenyl)-6-((S, E)-5-methoxy-4-(methylamino)pent-2-enoyl)-4,5,6,7-tetrahydrothieno[2,3-c]pyridine-2-carbonitrile] yielded an IC50 of over 25 µM.
`CCn1cc(-c2cc(CO)ccc2C2CN(C(=O)/C=C/CN(C)C)Cc3sc(C#N)cc32)c(C(F)(F)F)n1` (stereo not shown) [Example 194, (E)-6-(4-(Dimethylamino)but-2-enoyl)-4-(2-(1-ethyl-3-(trifluoromethyl)-1 H-pyrazol-4-yl)-4-(hydroxymethyl)phenyl)-4,5,6,7-tetrahydrothieno[2,3-c]pyridine-2-carbonitrile] was tested, and the IC50 was over 25 µM.
With `CCn1cc(-c2ccc(N)cc2C2CN(C(=O)/C=C/CN(C)C)Cc3sc(C#N)cc32)c(C(F)(F)F)n1` (stereo not shown) [Example 196, (E)-4-(5-Amino-2-(1-ethyl-3-(trifluoromethyl)-1 H-pyrazol-4-yl)phenyl)-6-(4-(dimethylamino)but-2-enoyl)-4,5,6,7-tetrahydrothieno[2,3-c]pyridine-2-carbonitrile] the IC50 was over 25 µM.
Molecule `CCn1cc(-c2cccc(O)c2C2CN(C(=O)/C=C/CN(C)C)Cc3sc(C#N)cc32)c(C(F)(F)F)n1` (stereo not shown) [Example 204, (E)-6-(4-(Dimethylamino)but-2-enoyl)-4-(2-(1-ethyl-3-(trifluoromethyl)-1 H-pyrazol-4-yl)-6-hydroxyphenyl)-4,5,6,7-tetrahydrothieno[2,3-c]pyridine-2-carbonitrile] has an IC50 of over 25 µM.
In the case of `CCOC(=O)Cn1cc(-c2ccccc2[C@@H]2CN(C(=O)/C=C/CN(C)C)Cc3sc(C#N)cc32)c(C(F)(F)F)n1` [Example 169, Ethyl (S,E)-2-(4-(2-(2-cyano-6-(4-(dimethylamino)but-2-enoyl)-4,5,6,7-tetrahydrothieno[2,3-c]pyridin-4-yl)phenyl)-3-(trifluoromethyl)-1 H-pyrazol-1-yl)acetate], the IC50 is reported as 14.5 µM.
`CCn1cc(-c2ccccc2[C@@H]2CN(C(=O)/C=C/CNC3(C)CCOC3)Cc3sc(C#N)cc32)c(C(F)(F)F)n1` (stereo partly drawn) [Example 97, (4S)-4-(2-(1-Ethyl-3-(trifluoromethyl)-1 H-pyrazol-4-yl)phenyl)-6-((E)-4-((3-methyltetrahydrofuran-3-yl)amino)but-2-enoyl)-4,5,6,7-tetrahydrothieno[2,3-c]pyridine-2-carbonitrile] showed an IC50 of 2.76 µM.
Molecule `CN(C)C/C=C/C(=O)N1Cc2sc(C#N)cc2[C@H](c2ccccc2-c2c[nH]nc2C(F)(F)F)C1` [Example 153, (S, E)-6-(4-(Dimethylamino)but-2-enoyl)-4-(2-(3-(trifluoromethyl)-1 H-pyrazol-4-yl)phenyl)-4,5,6,7-tetrahydrothieno[2,3-c]pyridine-2-carbonitrile] has an IC50 of 9.68 µM.
`CCn1cc(-c2ccccc2[C@@H]2CN(C(=O)/C=C/[C@H](COC)NC)Cc3sc(C#N)cc32)c(C(F)(F)F)n1` [Example 86, (S)-4-(2-(1-Ethyl-3-(trifluoromethyl)-1 H-pyrazol-4-yl)phenyl)-6-((R, E)-5-methoxy-4-(methylamino)pent-2-enoyl)-4,5,6,7-tetrahydrothieno[2,3-c]pyridine-2-carbonitrile] gave an IC50 of 9.1 µM.
In the case of `CCn1cc(-c2ccccc2[C@@H]2CN(C(=O)/C=C/C(C)NC)Cc3sc(C#N)cc32)c(C(F)(F)F)n1` (stereo partly drawn) [Example 77, (4S)-4-(2-(1-Ethyl-3-(trifluoromethyl)-1 H pyrazol-4-yl)phenyl)-6-((E)-4-(methylamino)pent-2-enoyl)-4,5,6,7-tetrahydrothieno[2,3-c]pyridine-2-carbonitrile], the IC50 is reported as 9.55 µM.
For `CCn1cc(-c2cc(Cl)ccc2C2CN(C(=O)/C=C/CN(C)C)Cc3sc(C#N)cc32)c(C(F)(F)F)n1` (stereo not shown) [Example 212, (E)-4-(4-Chloro-2-(1-ethyl-3-(trifluoromethyl)-1 H-pyrazol-4-yl)phenyl)-6-(4-(dimethylamino)but-2-enoyl)-4,5,6,7-tetrahydrothieno[2,3-c]pyridine-2-carbonitrile], the IC50 was 11.7 µM.
`CCn1cc(-c2c(F)cccc2[C@@H]2CN(C(=O)/C=C/CN[C@@H]3CCOC3)Cc3sc(C#N)cc32)c(C(F)(F)F)n1` [Example 55, (S)-4-(2-(1-ethyl-3-(trifluoromethyl)-1 H-pyrazol-4-yl)-3-fluorophenyl)-6-((E)-4-(((R)-tetrahydrofuran-3-yl)amino)but-2-enoyl)-4,5,6,7-tetrahydrothieno[2,3-c]pyridine-2-carbonitrile] gave an IC50 of 1.66 µM.
`CCn1cc(-c2cc(C)ccc2C2CN(C(=O)/C=C/CN(C)C)Cc3sc(C#N)cc32)c(C(F)(F)F)n1` (stereo not shown) [Example 210, (E)-6-(4-(Dimethylamino)but-2-enoyl)-4-(2-(1-ethyl-3-(trifluoromethyl)-1 H pyrazol-4-yl)-4-methylphenyl)-4,5,6,7-tetrahydrothieno[2,3-c]pyridine-2-carbonitrile] showed an IC50 of 19.7 µM.
`CN(C)C/C=C/C(=O)N1Cc2sc(C#N)cc2[C@H](c2ccccc2-c2cn(CC(F)(F)F)nc2C(F)(F)F)C1` [Example 19, (S, E)-6-(4-(Dimethylamino)but-2-enoyl)-4-(2-(1-(2,2,2-trifluoroethyl)-3-(trifluoromethyl)-1 H-pyrazol-4-yl)phenyl)-4,5,6,7-tetrahydrothieno[2,3-c]pyridine-2-carbonitrile] gave an IC50 of 6.12 µM.
`CCn1cc(-c2c(C3CN(C(=O)/C=C/CN(C)C)Cc4sc(C#N)cc43)ccnc2F)c(C(F)(F)F)n1` (stereo not shown) [Example 202, (E)-6-(4-(Dimethylamino)but-2-enoyl)-4-(3-(1-ethyl-3-(trifluoromethyl)-1 H-pyrazol-4-yl)-2-fluoropyridin-4-yl)-4,5,6,7-tetrahydrothieno[2,3-c]pyridine-2-carbonitrile] gave an IC50 of 24.9 µM.
